Data: patent US10076491B2, “Vaccine composition” (NITTO DENKO CORPORATION, priority 2013, dated 2018)

Test system: IFN-γ-producing cells (spleen cells)
Test: Mouse immunization test with cream formulation for transdermal administration, ELISPOT method (IFN-γ)
Format: in vivo
Details: FIG. 1 / Table 2, combination with Th1 adjuvant imiquimod (IMQ), OVAp
Description: Spleen cells (3×10^6 cells/well) and an antigen peptide (100 μM) or an antigen protein (100 μg/mL) together with the culturing medium were placed into a well of an ELISPOT plate on which an anti-mouse IFN-γ antibody had been immobilized. The plate was cultured for 20 hours under the condition of 37° C. and 5% CO2. The number of the spots representing IFN-γ-producing cells (spot number/3×10^6 cells) was evaluated by the ELISPOT method.
Mouse Immunization Test with Cream Formulation for Transdermal Administration
Mouse immunization test was performed with the cream formulations prepared as described above using a model animal for immunological evaluation. The immunity induction level was evaluated by ELISPOT method. Specifically, the hair of the back of the mouse was cut, and the mouse was kept until it recovered from the skin damage due to the hair cutting. After that, 4 mg of each cream formulation was applied to the skin of the back of the mouse for 24 hours, and then removed. After 6 days, the level of the cellular immunity induction specific for the antigen was evaluated. Six days after the administration, the spleen of the mouse was removed to prepare a suspension of spleen cells. […] The number of the spot representing IFN-γ producing cells (spot number/3×10^6 cells) was evaluated by ELISPOT method.

`CC(C(=O)O)c1ccc(CC2CCCC2=O)cc1` (centres unmarked) [loxoprofen] was tested, and the “effect of combination of Th2 cell differentiation inhibitor and Th1 adjuvant (ELISPOT)” value was “synergistic effect”.
With `COc1ccc2cc3[n+](cc2c1OC)CCc1cc2c(cc1-3)OCO2` [berberine] the “effect of combination of Th2 cell differentiation inhibitor and Th1 adjuvant (ELISPOT)” value was “synergistic effect”.
